Measured values reported in patent US20210161837A1, “METHODS FOR TREATING CANCER WITH RORGAMMA INHIBITORS” (The Regents of the University of California, priority 2016, published 2021).

Legend:
[1] = tested on: prostate cancer C4-2B cells; assay: Cell viability (Cell-Titer GLO), 4 days, prostate cancer cells; type: cell-based, human
Experimental: The “No.” label for each compound corresponds to the “Structure No.” in Table 2 (e.g., “No. 36”=“Structure No. 36” in Table 2). Experiments were independently performed three times.
(§1) For cell viability, cells were seeded in 96-well plates at 1500-2500 cells per well (optimum density for growth, depending on the specific cell line) in a total volume of 100 μl media. Serially diluted compounds in 100 μl of media were added to the cells 12 hours later. After 4 days of incubation, Cell-Titer GLO reagents (Promega) were added and luminescence was measured on GLOMAX microplate luminometer (Promega), according to the manufacturer's instructions. All experimental points were set up as sextuplicate as biological replication and the entire experiments were repeated three times. The data are presented as percentage of viable cells with vehicle treated cells set as 100. The estimated in vitro IC50 values were calculated using GraphPad Prism 6 software.

HCC70 cells = assay: Cell viability (CellTiter-GLO), 4 days, TNBC cells; type: cell-based, human
Experimental: (§2) The “No.” label for each compound corresponds to the “Structure No.” in Table 2 (e.g., “No. 36”=“Structure No. 36” in Table 2). The cell viability curves were measured by CellTiter-GLO.
as §1, with “growth)” for “growth, depending on the specific cell line)”

MDA-MB468 cells = assay: Cell viability (CellTiter-GLO), 4 days, TNBC cells; type: cell-based, human
Experimental: as §2
as §1, with “growth)” for “growth, depending on the specific cell line)”

[2] = tested on: gastric cancer KATO III cells; assay: Cell viability (Cell-Titer GLO), 4 days, gastric cancer cells; type: cell-based, human
Experimental: Experiments were independently performed three times.
as §1, with “100.” for “100. The estimated in vitro IC50 values were calculated using GraphPad Prism 6 software.”

[3] = tested on: SUM159 orthotopic xenograft tumors; assay: TNBC SUM159 orthotopic xenograft tumor growth in SCID mice; type: in vivo, mouse; conditions: 5 mg/kg, i.p., 5 times per week, 45 days
Experimental: Orthotopic xenograft tumor models and chemical compound treatments: Four-week-old female SCID C.B17 mice (for TNBC SUM159 cell lines) were purchased from Harlan Inc. For establishing tumors, 2×10^6 cells were suspended in total of 100 μL PBS/Matrigel (1:1) and implanted orthotopically into the 4th inguinal mammary fat pads at both sides. Animal group size of six or more was estimated to have a high statistical power, based on power calculation (www.biomath.info/pgwer/) and 20 previous studies involving the same xenograft models. When the tumor volume was approximately 50 mm^3, the mice were randomized and then treated intraperitoneally (i.p.) with 100 μl of vehicle or RORγ inhibitors F18/No. 37, 5 mg/kg; GSK805, 5 mg/kg; GNE3500, 5 mg/kg. (in a formulation of 15% Cremophor EL, Calbiochem, 82.5% PBS, and 2.5% DMSO) for five times per week. Tumor growth was monitored by calipers with volume calculated using the equation: π/6 (length×width^2). Mouse body weight during the course of the study was also monitored. At the end of the studies, mice were killed and tumors were dissected and weighed.

MCF-7-TamR = assay: Growth and survival of tamoxifen-resistant breast cancer cells; type: cell-based, human; conditions: MCF-7-TamR, 1 μM of 4(OH)-tamoxifen alone

| Compound | inhibition of growth and survival [1] | inhibition of growth and survival (HCC70 cells) | inhibition of growth and survival (MDA-MB468 cells) | inhibition of growth and survival [2] | orthotopic tumor growth inhibition [3] | growth inhibitory effect, tamoxifen alone (MCF-7-TamR) |
| --- | --- | --- | --- | --- | --- | --- |
| O=C(Cc1ccc([N+](=O)[O-])cc1)Nc1ccc(-c2ccc(C(O)(C(F)(F)F)C(F)(F)F)cc2F)cc1 [F17, N-(2′-fluoro-4′-(1,1,1,3,3,3-hexafluoro-2-hydroxypropan-2-yl)-[1,1′-biphenyl]-4-yl)-2-(4-nitrophenyl)acetamide] | strongly inhibited the growth and survival | strongly inhibited the growth and survival | strongly inhibited the growth and survival | – | – | – |
| O=C(CCc1ccccc1)Nc1ccc(-c2ccc(C(O)(C(F)(F)F)C(F)(F)F)cc2F)cc1 [F62, N-(2′-fluoro-4′-(1,1,1,3,3,3-hexafluoro-2-hydroxypropan-2-yl)-[1,1′-biphenyl]-4-yl)-3-phenylpropanamide] | strongly inhibited the growth and survival | strongly inhibited the growth and survival | strongly inhibited the growth and survival | – | – | – |
| O=C(CCC(F)(F)F)Nc1ccc(-c2ccc(C(O)(C(F)(F)F)C(F)(F)F)cc2F)cc1 [F63, 4,4,4-trifluoro-N-(2′-fluoro-4′-(1,1,1,3,3,3-hexafluoro-2-hydroxypropan-2-yl)-[1,1′-biphenyl]-4-yl)butanamide] | strongly inhibited the growth and survival | strongly inhibited the growth and survival | strongly inhibited the growth and survival | – | – | – |
| CCCCCCC(=O)Nc1ccc(-c2ccc(C(O)(C(F)(F)F)C(F)(F)F)cc2F)cc1 [F64, N-(2′-fluoro-4′-(1,1,1,3,3,3-hexafluoro-2-hydroxypropan-2-yl)-[1,1′-biphenyl]-4-yl)heptanamide] | strongly inhibited the growth and survival | strongly inhibited the growth and survival | strongly inhibited the growth and survival | – | – | – |
| O=C(CCCC1CCCCC1)Nc1ccc(-c2ccc(C(O)(C(F)(F)F)C(F)(F)F)cc2F)cc1 [F65, 4-cyclohexyl-N-(2′-fluoro-4′-(1,1,1,3,3,3-hexafluoro-2-hydroxypropan-2-yl)-[1,1′-biphenyl]-4-yl)butanamide] | strongly inhibited the growth and survival | strongly inhibited the growth and survival | strongly inhibited the growth and survival | – | – | – |
| COC(=O)CCCC(=O)Nc1ccc(-c2ccc(C(O)(C(F)(F)F)C(F)(F)F)cc2F)cc1 [F68, Methyl-5-((2′-fluoro-4′-(1,1,1,3,3,3-hexafluoro-2-hydroxypropan-2-yl)-[1,1′-biphenyl]-4-yl)amino)-5-oxopentanoate] | strongly inhibited the growth and survival | strongly inhibited the growth and survival | strongly inhibited the growth and survival | – | – | – |
| CC(=O)N1CCN(c2ccc(CN3[C@@H](C)CC[C@H](c4ccccc4)S3(=O)=O)c(F)c2)CC1 [GNE3500] | – | – | – | strongly inhibited the growth and survival | – | – |
| CCS(=O)(=O)c1ccc(CC(=O)Nc2cc(Cl)c(-c3ccccc3OC(F)(F)F)c(Cl)c2)cc1 [GSK805, reference compound] | – | – | – | strongly inhibited the growth and survival | Strong tumor growth inhibition | – |
| OC(c1ccc(-c2ccc(CN3CCN(Cc4ccncc4)CC3)cc2)c(F)c1)(C(F)(F)F)C(F)(F)F [SR2211] | – | – | – | strongly inhibited the growth and survival | – | – |
| CC/C(=C(\c1ccccc1)c1ccc(OCCN(C)C)cc1)c1ccccc1 [tamoxifen, reference compound] | – | – | – | – | – | did not show any inhibitory effect |
